Activity calls are given as the source filed them. The rule behind the calls is not given here.
Columns and labels:
MCF7 [1] = experiment: cells; conditions: Homo sapiens, MCF7, light or radiation study
Description: Antiproliferative activity against human MCF7 cells assessed as inhibition of cell proliferation incubated for 48 hrs with 660 nm 0.4 W/cm2 light irradiation for 5 min at 6th hr of incubation time by MTT assay

[2] = Photothermal effect of compound in water assessed as increase in solution temperature measured up to 5 mins in presence of 660 nm 0.4 W/cm2 light irradiation; type: functional; conditions: dose 0.5-10 µM
[3] = Induction of ROS generation in water at 1 uM irradiated with 660 nm 0.4 W/cm2 light up to 180 sec by DCFH probe based fluorescence spectra analysis; type: functional
MCF7 [4] = experiment: cells; conditions: Homo sapiens, MCF7, 48 h
Description: Antiproliferative activity against human MCF7 cells assessed as inhibition of cell proliferation incubated for 48 hrs by MTT assay

MCF7 [5] = experiment: cells; conditions: Homo sapiens, MCF7, light or radiation study; remark: listed apart in the source
Description: Antiproliferative activity against human MCF7 cells assessed as inhibition of cell proliferation incubated for 48 hrs with 660 nm 0.4 W/cm2 light irradiation for 1 min at 6th hr of incubation time by MTT assay

MCF7 [6] = experiment: cells; conditions: Homo sapiens, MCF7, light or radiation study; remark: listed apart in the source
Description: Antiproliferative activity against human MCF7 cells assessed as inhibition of cell proliferation incubated for 48 hrs with 660 nm 0.4 W/cm2 light irradiation for 3 min at 6th hr of incubation time by MTT assay

[7] = Induction of ROS generation in water assessed as decrease in ABDA absorption peak at 5 uM irradiated with 660 nm 0.4 W/cm2 light up to 5 mins by ABDA probe based UV-vis absorption spectra analysis; type: functional
[8] = Photothermal effect of compound in water assessed as increase in solution temperature at 0.5 to 10 uM in presence of 660 nm 0.4 W/cm2 light irradiation; type: functional; conditions: dose 0.5-10 µM, time <= 5.0 min
MCF7 [9] = experiment: cells; conditions: Homo sapiens, MCF7, light or radiation study; remark: listed apart in the source
Description: Antiproliferative activity against human MCF7 cells assessed as inhibition of cell proliferation incubated for 48 hrs with 660 nm 0.4 W/cm2 light irradiation for 4 min at 6th hr of incubation time by MTT assay

MCF7 [10] = experiment: Induction of ROS generation in human MCF7 cells assessed as cell percentage with elevated ROS at 1 uM incubated for 6 hrs followed by irradiation with 660 nm 0.4 W/cm2 light for 2 min by DCFH-DA probe based flow cytometric analysis (reference value: 0.2 %); type: functional; conditions: time 362 min, 6.033 h
MCF7 [11] = experiment: cells; conditions: Homo sapiens, MCF7, light or radiation study; remark: listed apart in the source
Description: Antiproliferative activity against human MCF7 cells assessed as inhibition of cell proliferation incubated for 48 hrs with 660 nm 0.4 W/cm2 light irradiation for 2 min at 6th hr of incubation time by MTT assay

in vivo [12] = conditions: Sprague-Dawley, rat, iv, 5 mg/kg
Description: Volume of distribution at steady state in Sprague-Dawley rat at 5 mg/kg, iv measured after 0.5 to 168 hrs by LC-MS analysis

in vivo [13] = conditions: Sprague-Dawley, rat, po, 15 mg/kg
Description: Tmax in Sprague-Dawley rat at 15 mg/kg, po administered via gavage and measured after 0.5 to 168 hrs by LC-MS analysis

in vivo [14] = conditions: Sprague-Dawley, rat, iv, 5 mg/kg; remark: listed apart in the source
Description: Cmax in Sprague-Dawley rat at 5 mg/kg, iv measured after 0.5 to 168 hrs by LC-MS analysis

in vivo [15] = conditions: Sprague-Dawley, rat, po, 15 mg/kg; remark: listed apart in the source
Description: Cmax in Sprague-Dawley rat at 15 mg/kg, po administered via gavage and measured after 0.5 to 168 hrs by LC-MS analysis

in vivo [16] = conditions: Sprague-Dawley, rat, iv, 5 mg/kg; remark: listed apart in the source
Description: AUC (0 to infinity) in Sprague-Dawley rat at 5 mg/kg, iv measured after 0.5 to 168 hrs by LC-MS analysis

in vivo [17] = conditions: Sprague-Dawley, rat, po, 15 mg/kg; remark: listed apart in the source
Description: AUC (0 to infinity) in Sprague-Dawley rat at 15 mg/kg, po administered via gavage and measured after 0.5 to 168 hrs by LC-MS analysis

[18] = Toxicity in female BALB/c mouse xenografted with human MCF7 cells assessed as change in body weight at 5 mg/kg, iv measured after 14 days; type: organism-based; conditions: in vivo, 336 h, time 14 day
[19] = Toxicity in female BALB/c mouse xenografted with human MCF7 cells assessed as change in AST level at 5 mg/kg, iv measured after 14 days; type: organism-based; conditions: in vivo, 336 h, time 14 day
[20] = Toxicity in female BALB/c mouse xenografted with human MCF7 cells assessed as change in ALT level at 5 mg/kg, iv measured after 14 days; type: organism-based; conditions: in vivo, 336 h, time 14 day
MCF7 [21] = experiment: Antitumor activity against human MCF7 cells xenografted in female BALB/c mouse model assessed as tumor growth inhibition at 5 mg/kg, iv measured after 14 days relative to control; type: functional; conditions: MCF7, 336 h, time 14 day, read-out: TGI
[22] = Toxicity in female BALB/c mouse xenografted with human MCF7 cells assessed as change in blood urea nitrogen level at 5 mg/kg, iv measured after 14 days; type: organism-based; conditions: in vivo, 336 h, time 14 day
[23] = Toxicity in female BALB/c mouse xenografted with human MCF7 cells assessed as change in creatinine level at 5 mg/kg, iv measured after 14 days; type: organism-based; conditions: in vivo, 336 h, time 14 day

| SMILES | IC50 (MCF7 [1]) [µM] | Activity [3] | IC50 (MCF7 [4]) [µM] | IC50 (MCF7 [5]) [µM] | IC50 (MCF7 [6]) [µM] | Activity [7] | IC50 (MCF7 [9]) [µM] | Activity (MCF7 [10]) [%] | IC50 (MCF7 [11]) [µM] | also measured |
| --- | --- | --- | --- | --- | --- | --- | --- | --- | --- | --- |
| CCN(CC)c1ccc2nc3c4ccccc4/c(=N\CCC(=O)NCCCOc4ccc(C(=O)c5c(-c6ccc(O)cc6)sc6cc(O)ccc56)cc4)cc-3sc2c1 | 0.63 | Active | > 100 | 5.53 | 1.78 | Active | 1.34 | 4.2 | 3.85 | Activity [2]: Dose-dependent-effect; Activity [8]: Time-dependent-effect |
| CN(C)c1ccc2nc3ccc(N(C)C)cc3[s+]c2c1 [METHYLENE BLUE ANHYDROUS] | 5.53 | – | > 100 | > 100 | 14.1 | – | 6.76 | – | > 100 | – |
| O=C(c1ccc(OCCN2CCCCC2)cc1)c1c(-c2ccc(O)cc2)sc2cc(O)ccc12 [RALOXIFENE] | – | – | 6.7 | – | – | – | – | – | – | – |
| CCN(CC)c1ccc2nc3c4ccccc4/c(=N\CCCCC(=O)NCCCOc4ccc(C(=O)c5c(-c6ccc(O)cc6)sc6cc(O)ccc56)cc4)cc-3sc2c1 | 0.33 | Active | > 100 | 4.67 | 0.72 | Active | 0.38 | 4.8 | 0.93 | – |
| CC/C(=C(\c1ccccc1)c1ccc(OCCN(C)C)cc1)c1ccccc1 [TAMOXIFEN] | – | – | – | – | – | – | – | – | – | Vd (in vivo [12]): 221 L/kg; Tmax (in vivo [13]): 16 h; Cmax (in vivo [14]): 15.9 ng/mL; Cmax (in vivo [15]): 11.7 ng/mL; AUC(0-inf) (in vivo [16]): 295 ng·h/mL; AUC(0-inf) (in vivo [17]): 311 ng·h/mL |
| C[C@]12CC[C@@H]3c4ccc(O)cc4C[C@@H](CCCCCCCCC[S+]([O-])CCCC(F)(F)C(F)(F)F)[C@H]3[C@@H]1CC[C@@H]2O (some centres undefined) [FULVESTRANT] | – | – | – | – | – | – | – | – | – | Activity [18]: Non-toxic; Activity [19]: Non-toxic; Activity [20]: Non-toxic; inhibition in vivo at 5 mg/kg (MCF7 [21]): 95.4%; Activity [22]: Non-toxic; Activity [23]: Non-toxic |
